Tested on: HL-60
Assay: Cytotoxicity against human HL60 cells assessed as growth inhibition at 10 uM after 24 to 48 hrs by MTT assay relative to control
Assay type: functional
Details: read-out: GI

Point of comparison: `O=S(=O)(c1ccc(F)cc1F)N(c1ccccc1)c1ccnc2ccc(-c3ccc(O)cc3)cc12`, inhibition of growth at 10 µM 87%. Against it:
- CC(C)(C)c1ccc(S(=O)(=O)N(c2ccccc2)c2ccnc3ccc(-c4ccc(O)cc4)cc23)cc1 — lower, 76%
- O=[N+]([O-])c1cc(S(=O)(=O)N(c2ccccc2)c2ccnc3ccc(-c4ccc(O)cc4)cc23)ccc1C(F)(F)F — higher, 90%

Tested on: HL-60
Assay: Cytotoxicity against human HL60 cells assessed as growth inhibition at 30 uM after 24 to 48 hrs by MTT assay relative to control
Assay type: functional
Details: read-out: GI

Point of comparison: `O=[N+]([O-])c1cc(S(=O)(=O)N(c2ccccc2)c2ccnc3ccc(-c4ccc(O)cc4)cc23)ccc1C(F)(F)F`, inhibition of growth at 30 µM 92%. Against it:
- CC(C)(C)c1ccc(S(=O)(=O)N(c2ccccc2)c2ccnc3ccc(-c4ccc(O)cc4)cc23)cc1 — lower, 89%
- O=S(=O)(c1ccc(F)cc1F)N(c1ccccc1)c1ccnc2ccc(-c3ccc(O)cc3)cc12 — lower, 88%

Tested on: HL-60
Assay: Cytotoxicity against human HL60 cells assessed as growth inhibition at 100 uM after 24 to 48 hrs by MTT assay relative to control
Assay type: functional
Details: read-out: GI

Point of comparison: `CC(C)(C)c1ccc(S(=O)(=O)N(c2ccccc2)c2ccnc3ccc(-c4ccc(O)cc4)cc23)cc1`, inhibition of growth at 100 µM 93%. Against it:
- O=[N+]([O-])c1cc(S(=O)(=O)N(c2ccccc2)c2ccnc3ccc(-c4ccc(O)cc4)cc23)ccc1C(F)(F)F — the same, 93%
- O=S(=O)(c1ccc(F)cc1F)N(c1ccccc1)c1ccnc2ccc(-c3ccc(O)cc3)cc12 — lower, 89%

Tested on: not listed separately
Assay: Cytotoxicity against human MIAPaCa2 cells assessed as growth inhibition at 10 uM after 24 to 48 hrs by MTT assay relative to control
Assay type: functional
Details: MIA PaCa-2, read-out: GI

Point of comparison: `O=S(=O)(c1ccc(F)cc1F)N(c1ccccc1)c1ccnc2ccc(-c3ccc(O)cc3)cc12`, inhibition of growth at 10 µM 80%. Against it:
- CC(C)(C)c1ccc(S(=O)(=O)N(c2ccccc2)c2ccnc3ccc(-c4ccc(O)cc4)cc23)cc1 — lower, 79%
- O=[N+]([O-])c1cc(S(=O)(=O)N(c2ccccc2)c2ccnc3ccc(-c4ccc(O)cc4)cc23)ccc1C(F)(F)F — lower, 45%

Tested on: not listed separately
Assay: Cytotoxicity against human MIAPaCa2 cells assessed as growth inhibition at 30 uM after 24 to 48 hrs by MTT assay relative to control
Assay type: functional
Details: MIA PaCa-2, read-out: GI

Point of comparison: `O=[N+]([O-])c1cc(S(=O)(=O)N(c2ccccc2)c2ccnc3ccc(-c4ccc(O)cc4)cc23)ccc1C(F)(F)F`, inhibition of growth at 30 µM 60%. Against it:
- CC(C)(C)c1ccc(S(=O)(=O)N(c2ccccc2)c2ccnc3ccc(-c4ccc(O)cc4)cc23)cc1 — higher, 85%
- O=S(=O)(c1ccc(F)cc1F)N(c1ccccc1)c1ccnc2ccc(-c3ccc(O)cc3)cc12 — higher, 84%

Tested on: not listed separately
Assay: Cytotoxicity against human MIAPaCa2 cells assessed as growth inhibition at 100 uM after 24 to 48 hrs by MTT assay relative to control
Assay type: functional
Details: MIA PaCa-2, read-out: GI

Point of comparison: `O=[N+]([O-])c1cc(S(=O)(=O)N(c2ccccc2)c2ccnc3ccc(-c4ccc(O)cc4)cc23)ccc1C(F)(F)F`, inhibition of growth at 100 µM 79%. Against it:
- CC(C)(C)c1ccc(S(=O)(=O)N(c2ccccc2)c2ccnc3ccc(-c4ccc(O)cc4)cc23)cc1 — higher, 90%
- O=S(=O)(c1ccc(F)cc1F)N(c1ccccc1)c1ccnc2ccc(-c3ccc(O)cc3)cc12 — higher, 87%

Tested on: HCT-116
Assay: Cytotoxicity against human HCT116 cells assessed as growth inhibition at 10 uM after 24 to 48 hrs by MTT assay relative to control
Assay type: functional
Details: read-out: GI

Point of comparison: `CC(C)(C)c1ccc(S(=O)(=O)N(c2ccccc2)c2ccnc3ccc(-c4ccc(O)cc4)cc23)cc1`, inhibition of growth at 10 µM 20%. Against it:
- O=[N+]([O-])c1cc(S(=O)(=O)N(c2ccccc2)c2ccnc3ccc(-c4ccc(O)cc4)cc23)ccc1C(F)(F)F — the same, 20%
- O=S(=O)(c1ccc(F)cc1F)N(c1ccccc1)c1ccnc2ccc(-c3ccc(O)cc3)cc12 — lower, 2%

Tested on: HCT-116
Assay: Cytotoxicity against human HCT116 cells assessed as growth inhibition at 30 uM after 24 to 48 hrs by MTT assay relative to control
Assay type: functional
Details: read-out: GI

Point of comparison: `O=S(=O)(c1ccc(F)cc1F)N(c1ccccc1)c1ccnc2ccc(-c3ccc(O)cc3)cc12`, inhibition of growth at 30 µM 20%. Against it:
- CC(C)(C)c1ccc(S(=O)(=O)N(c2ccccc2)c2ccnc3ccc(-c4ccc(O)cc4)cc23)cc1 — higher, 35%
- O=[N+]([O-])c1cc(S(=O)(=O)N(c2ccccc2)c2ccnc3ccc(-c4ccc(O)cc4)cc23)ccc1C(F)(F)F — higher, 23%

Tested on: HCT-116
Assay: Cytotoxicity against human HCT116 cells assessed as growth inhibition at 100 uM after 24 to 48 hrs by MTT assay relative to control
Assay type: functional
Details: read-out: GI

Point of comparison: `O=S(=O)(c1ccc(F)cc1F)N(c1ccccc1)c1ccnc2ccc(-c3ccc(O)cc3)cc12`, inhibition of growth at 100 µM 58%. Against it:
- CC(C)(C)c1ccc(S(=O)(=O)N(c2ccccc2)c2ccnc3ccc(-c4ccc(O)cc4)cc23)cc1 — higher, 83%
- O=[N+]([O-])c1cc(S(=O)(=O)N(c2ccccc2)c2ccnc3ccc(-c4ccc(O)cc4)cc23)ccc1C(F)(F)F — lower, 29%

Tested on: HepG2
Assay: Cytotoxicity against human HepG2 cells assessed as growth inhibition at 10 uM after 24 to 48 hrs by MTT assay relative to control
Assay type: functional
Details: read-out: GI

Point of comparison: `CC(C)(C)c1ccc(S(=O)(=O)N(c2ccccc2)c2ccnc3ccc(-c4ccc(O)cc4)cc23)cc1`, inhibition of growth at 10 µM 14%. Against it:
- O=[N+]([O-])c1cc(S(=O)(=O)N(c2ccccc2)c2ccnc3ccc(-c4ccc(O)cc4)cc23)ccc1C(F)(F)F — lower, 3%
- O=S(=O)(c1ccc(F)cc1F)N(c1ccccc1)c1ccnc2ccc(-c3ccc(O)cc3)cc12 — higher, 87%

Tested on: HepG2
Assay: Cytotoxicity against human HepG2 cells assessed as growth inhibition at 30 uM after 24 to 48 hrs by MTT assay relative to control
Assay type: functional
Details: read-out: GI

Point of comparison: `O=S(=O)(c1ccc(F)cc1F)N(c1ccccc1)c1ccnc2ccc(-c3ccc(O)cc3)cc12`, inhibition of growth at 30 µM 89%. Against it:
- CC(C)(C)c1ccc(S(=O)(=O)N(c2ccccc2)c2ccnc3ccc(-c4ccc(O)cc4)cc23)cc1 — the same, 89%
- O=[N+]([O-])c1cc(S(=O)(=O)N(c2ccccc2)c2ccnc3ccc(-c4ccc(O)cc4)cc23)ccc1C(F)(F)F — lower, 3%

Tested on: HepG2
Assay: Cytotoxicity against human HepG2 cells assessed as growth inhibition at 100 uM after 24 to 48 hrs by MTT assay relative to control
Assay type: functional
Details: read-out: GI

Point of comparison: `O=[N+]([O-])c1cc(S(=O)(=O)N(c2ccccc2)c2ccnc3ccc(-c4ccc(O)cc4)cc23)ccc1C(F)(F)F`, inhibition of growth at 100 µM 8%. Against it:
- CC(C)(C)c1ccc(S(=O)(=O)N(c2ccccc2)c2ccnc3ccc(-c4ccc(O)cc4)cc23)cc1 — higher, 98%
- O=S(=O)(c1ccc(F)cc1F)N(c1ccccc1)c1ccnc2ccc(-c3ccc(O)cc3)cc12 — higher, 90%

Tested on: PC-3
Assay: Cytotoxicity against human PC3 cells assessed as growth inhibition at 10 uM after 24 to 48 hrs by MTT assay relative to control
Assay type: functional
Details: read-out: GI

Point of comparison: `CC(C)(C)c1ccc(S(=O)(=O)N(c2ccccc2)c2ccnc3ccc(-c4ccc(O)cc4)cc23)cc1`, inhibition of growth at 10 µM 21%. Against it:
- O=[N+]([O-])c1cc(S(=O)(=O)N(c2ccccc2)c2ccnc3ccc(-c4ccc(O)cc4)cc23)ccc1C(F)(F)F — higher, 39%
- O=S(=O)(c1ccc(F)cc1F)N(c1ccccc1)c1ccnc2ccc(-c3ccc(O)cc3)cc12 — higher, 26%

Tested on: PC-3
Assay: Cytotoxicity against human PC3 cells assessed as growth inhibition at 30 uM after 24 to 48 hrs by MTT assay relative to control
Assay type: functional
Details: read-out: GI

Point of comparison: `O=S(=O)(c1ccc(F)cc1F)N(c1ccccc1)c1ccnc2ccc(-c3ccc(O)cc3)cc12`, inhibition of growth at 30 µM 61%. Against it:
- CC(C)(C)c1ccc(S(=O)(=O)N(c2ccccc2)c2ccnc3ccc(-c4ccc(O)cc4)cc23)cc1 — lower, 45%
- O=[N+]([O-])c1cc(S(=O)(=O)N(c2ccccc2)c2ccnc3ccc(-c4ccc(O)cc4)cc23)ccc1C(F)(F)F — higher, 68%

Tested on: PC-3
Assay: Cytotoxicity against human PC3 cells assessed as growth inhibition at 100 uM after 24 to 48 hrs by MTT assay relative to control
Assay type: functional
Details: read-out: GI

Point of comparison: `O=S(=O)(c1ccc(F)cc1F)N(c1ccccc1)c1ccnc2ccc(-c3ccc(O)cc3)cc12`, inhibition of growth at 100 µM 73%. Against it:
- CC(C)(C)c1ccc(S(=O)(=O)N(c2ccccc2)c2ccnc3ccc(-c4ccc(O)cc4)cc23)cc1 — lower, 70%
- O=[N+]([O-])c1cc(S(=O)(=O)N(c2ccccc2)c2ccnc3ccc(-c4ccc(O)cc4)cc23)ccc1C(F)(F)F — higher, 84%

Tested on: HL-60
Assay: cells
Details: Homo sapiens, HL-60, 48 h
Description: Cytotoxicity against human HL60 cells assessed as inhibition of cell proliferation after 48 hrs by MTT assay

`CC(C)(C)c1ccc(S(=O)(=O)N(c2ccccc2)c2ccnc3ccc(-c4ccc(O)cc4)cc23)cc1` and `O=S(=O)(c1ccc(F)cc1F)N(c1ccccc1)c1ccnc2ccc(-c3ccc(O)cc3)cc12` cannot be ordered by IC50: under 10 µM for the first, under 10 µM for the second.

`O=[N+]([O-])c1cc(S(=O)(=O)N(c2ccccc2)c2ccnc3ccc(-c4ccc(O)cc4)cc23)ccc1C(F)(F)F` showed an IC50 of under 10 µM.

Tested on: not listed separately
Assay: cells
Details: Homo sapiens, MIA PaCa-2, 48 h
Description: Cytotoxicity against human MIAPaCa2 cells assessed as inhibition of cell proliferation after 48 hrs by MTT assay

Point of comparison: `O=[N+]([O-])c1cc(S(=O)(=O)N(c2ccccc2)c2ccnc3ccc(-c4ccc(O)cc4)cc23)ccc1C(F)(F)F`, IC50 16 µM. Against it:
- CC(C)(C)c1ccc(S(=O)(=O)N(c2ccccc2)c2ccnc3ccc(-c4ccc(O)cc4)cc23)cc1 — lower, < 10 µM
- O=S(=O)(c1ccc(F)cc1F)N(c1ccccc1)c1ccnc2ccc(-c3ccc(O)cc3)cc12 — lower, < 10 µM

Tested on: HCT-116
Assay: cells
Details: Homo sapiens, HCT-116, 48 h
Description: Cytotoxicity against human HCT116 cells assessed as inhibition of cell proliferation after 48 hrs by MTT assay

Point of comparison: `CC(C)(C)c1ccc(S(=O)(=O)N(c2ccccc2)c2ccnc3ccc(-c4ccc(O)cc4)cc23)cc1`, IC50 31 µM. Against it:
- O=[N+]([O-])c1cc(S(=O)(=O)N(c2ccccc2)c2ccnc3ccc(-c4ccc(O)cc4)cc23)ccc1C(F)(F)F — higher, > 100 µM
- O=S(=O)(c1ccc(F)cc1F)N(c1ccccc1)c1ccnc2ccc(-c3ccc(O)cc3)cc12 — 2.6-fold higher, 80 µM

Tested on: HepG2
Assay: cells
Details: Homo sapiens, HepG2, 48 h
Description: Cytotoxicity against human HepG2 cells assessed as inhibition of cell proliferation after 48 hrs by MTT assay

Point of comparison: `CC(C)(C)c1ccc(S(=O)(=O)N(c2ccccc2)c2ccnc3ccc(-c4ccc(O)cc4)cc23)cc1`, IC50 18 µM. Against it:
- O=[N+]([O-])c1cc(S(=O)(=O)N(c2ccccc2)c2ccnc3ccc(-c4ccc(O)cc4)cc23)ccc1C(F)(F)F — higher, > 100 µM
- O=S(=O)(c1ccc(F)cc1F)N(c1ccccc1)c1ccnc2ccc(-c3ccc(O)cc3)cc12 — lower, < 10 µM

Tested on: PC-3
Assay: cells
Details: Homo sapiens, PC-3, 48 h
Description: Cytotoxicity against human PC3 cells assessed as inhibition of cell proliferation after 48 hrs by MTT assay

Point of comparison: `CC(C)(C)c1ccc(S(=O)(=O)N(c2ccccc2)c2ccnc3ccc(-c4ccc(O)cc4)cc23)cc1`, IC50 44 µM. Against it:
- O=[N+]([O-])c1cc(S(=O)(=O)N(c2ccccc2)c2ccnc3ccc(-c4ccc(O)cc4)cc23)ccc1C(F)(F)F — 2.4-fold lower, 18 µM
- O=S(=O)(c1ccc(F)cc1F)N(c1ccccc1)c1ccnc2ccc(-c3ccc(O)cc3)cc12 — 1.8-fold lower, 25 µM

Reference: ChEMBL document CHEMBL3593172, “4-(N-Phenyl-N'-substituted benzenesulfonyl)-6-(4-hydroxyphenyl)quinolines as inhibitors of mammalian target of rapamycin” (Bioorg Med Chem, 2015)
